We go through 5 compounds from US20070202134A1, “Muc1 Antagonist Enhancement of Death Receptor Ligand-Induced Apoptosis” (priority 2004, published 2007).

Holding throughout (format): cell-based, Human
Experiment [1] deals with HCT116/vector cells. In words: Cell death after CDDP treatment, HCT116/vector cells. The following applies: CDDP for 72 h. As for the experimental part: (§1) Cell culture. Human HCT116 colon carcinoma cells (ATCC, Manassas, Va.) were cultured in Dulbecco's modified Eagle's medium/F12 with 10% heat-inactivated fetal bovine serum, 100 units/ml penicillin, […] streptomycin and 2 mM L-glutamine. Cells were treated with EGF (10 ng/ml; Calbiochem-Novabiochem, San Diego, Calif.), HRG (20 ng/ml; Calbiochem-Novabiochem), cisplatin (CDDP; Sigma), etoposide (Sigma), rhTNF-a (Promega, Madison, Wis.), CHX (Sigma) or rhTRAIL (100 ng/ml; Calbiochem-Novabiochem).
(§2) Methods. Experimental procedures and methods were as described in Example 1.

The test system of another experiment is HCT116/MUC1(Y46F) cells. In words: Cell death after CDDP treatment, HCT116/MUC1(Y46F) cells. Conditions: CDDP for 72 h. The procedure: as §1, §2
Another experiment has as its system HCT116/MUC1 cells. In words: Cell death after CDDP treatment, HCT116/MUC1 cells. Conditions: CDDP for 72 h, cessation of cell growth. The procedure:
as §1, §2

Experiment [2] has as its system HCT116/vector cells. In words: Apoptosis by analysis of sub-G1 DNA, HCT116/vector cells. As for the experimental part:
Methods. Apoptotic cells were quantified by analysis of sub-G1 DNA and TUNEL staining. To assess sub-G1 DNA content, cells were harvested, washed with PBS, fixed with 80% ethanol, and incubated in PBS containing 20 ng/ml RNase (Roche) for 60 min at 37° C. Cells were then stained with […] propidium iodide (Sigma) for 30 min at room temperature in the dark. DNA content was analyzed by flow cytometry (EPICS XL-MCL, Coulter Corp.). Apoptotic cells with DNA fragmentation were detected by staining with the In Situ cell death detection kit (TUNEL; Roche Applied Science) and visualized by confocal microscopy (ZEISS LSM510). After staining, cells were analyzed by flow cytometry. Other experimental procedures and methods were as described in Example 1.

The next experiment concerns cytochrome c. In words: Release of mitochondrial cytochrome c to the cytosol (immunoblot), HCT116/vector cells. Conditions: HCT116/vector cells treated with CDDP. As for the experimental part:
as §1
(§3) Immunoblot analysis. Lysates were prepared from subconfluent cells as described (Li et al., 2001a). Equal amounts of protein were separated by SDS-PAGE and transferred to nitrocellulose membranes. […] The immunocomplexes were detected with horseradish peroxidase-conjugated secondary antibodies and enhanced chemiluminescence (ECL, Amersham Biosciences, Piscataway, N.J.). Intensity of the signals was determined by densitometric scanning. […]

Experiment [3] relates to MUC1 C-ter. As to the kind of experiment: Expression of MUC1 C-ter after CHX. The following applies: CHX treatment. The procedure: Immunoblot analysis. Lysates were prepared from subconfluent cells as described (Li et al., 2001a). Equal amounts of protein were separated by SDS-PAGE and transferred to nitrocellulose membranes. […] The immunocomplexes were detected with horseradish peroxidase-conjugated secondary antibodies and enhanced chemiluminescence (ECL, Amersham Biosciences, Piscataway, N.J.). Intensity of the signals was determined by densitometric scanning.
Methods. Apoptotic cells were quantified by analysis of sub-G1 DNA and TUNEL staining. […] DNA content was analyzed by flow cytometry (EPICS XL-MCL, Coulter Corp.). Apoptotic cells with DNA fragmentation were detected by staining with the In Situ cell death detection kit (TUNEL; Roche Applied Science) and visualized by confocal microscopy (ZEISS LSM510). After staining, cells were analyzed by flow cytometry. […]

In experiment [4] the test system is MUC1 C-ter. In words: Mitochondrial localization of MUC1 C-ter in HCT116/MUC1 cells (immunoblot of mitochondrial fractions). The procedure:
as §1, §3
(In general: Immunoblotting shows a protein as a band on a membrane.)

The next experiment deals with MUC1(Y46F) C-ter. As to the kind of experiment: Mitochondrial localization of MUC1(Y46F) C-ter in HCT116/MUC1(Y46F) cells (immunoblot of mitochondrial fractions). As for the experimental part:
as §1, §3

For `[NH2][Pt]([NH2])([Cl])[Cl]` [CDDP, cisplatin], the cell death in the experiment with HCT116/vector cells [1] is listed as more than 90%; with HCT116/MUC1(Y46F) cells, more than 90%; in the experiment with HCT116/MUC1 cells, less than 30%. Besides, the “apoptosis (sub-G1 DNA)” value in the experiment with HCT116/vector cells [2] (100 μM CDDP for 24 h) was “approximately 40%”. For the same compound, in the experiment on cytochrome c, the “levels of cytosolic cytochrome c” value is given as “increased levels of cytosolic cytochrome c”.
With `C[C@@H]1C[C@@H]([C@H](O)CC2CC(=O)NC(=O)C2)C(=O)[C@@H](C)C1` [CHX, cycloheximide], the “effect on expression of MUC1 C-ter” value in the experiment on MUC1 C-ter [3] was “no apparent effect”.
As to “EGF: EGF (10 ng/ml; Calbiochem-Novabiochem) (NSDSECPLSHDGYCLHDGVCMYIEALDKYACNCVVGYIGERCQYRDLKWWELR; Epidermal growth factor; UniProt P01133 971-1023, looked up)”, the “effect on mitochondrial targeting of MUC1 C-ter” value in the experiment with MUC1 C-ter [4] (EGF 10 ng/ml) and in the experiment on MUC1(Y46F) C-ter (EGF 10 ng/ml) was “little effect” throughout.
With TNF-α, the induction of apoptosis entry is listed as “associated with induction of HCT116/vector cell apoptosis” with HCT116/vector cells [2] (20 ng/ml TNF-α in the presence of 10 ng/ml cycloheximide (CHX), 12 hr) and “failed to induce apoptosis” in the experiment with HCT116/vector cells [2] (TNF-α alone).
Regarding heregulin [HRG], in the experiment with MUC1 C-ter [4] (HRG 20 ng/ml, 0.5 h, persisted through 3 h), the “increase in localization of MUC1 C-ter to mitochondria” value was determined as 2.3 fold. Moreover, the “effect on mitochondrial localization of MUC1(Y46F) C-ter” value in the experiment on MUC1(Y46F) C-ter (HRG 20 ng/ml) is reported as “little effect”.
